Results taken from patent EP2832223A1, “HERBICIDAL COMPOSITION” (Ishihara Sangyo Kaisha, Ltd., priority 2012, dated 2013).

Key:
Type in all cases: in vivo
[1] = test system: wild oat (Avena fatua L.); experiment: Test Example 4: pot test, soil treatment, visual growth inhibition; settings: soil treatment, 28th day after treatment, read-out: Growth inhibition rate (%) of wild oat Measured value
Description: (§1) Upland field soil was put into a 1/1,000,000 ha pot, and seeds of wild oat (Avena fatua L.) were sown. On the next day, predetermined amounts of ONEHOPE NYUZAI (tradename), Click (tradename) and a wettable powder containing bicyclopyrone prepared in accordance with a conventional formulation method were diluted with water (in an amount corresponding to 1,000 L/ha) and applied for soil treatment by a small sprayer.
(§2) On the 28th day after treatment, the state of growth of the wild oat was visually observed to determine the growth inhibition rate (%). The growth inhibition rate (%) (measured value) and the growth inhibition rate (%) calculated in the same manner as in the above Test Example 1 are shown in Table 4.

[2] = test system: sunn-hemp (Crotalaria juncea L.); experiment: Test Example 7: pot test, soil treatment, visual growth inhibition; settings: soil treatment, 28th day after treatment, read-out: Growth inhibition rate (%) of sunn-hemp Measured value
Description: as §1, with “1/300,000” for “1/1,000,000”, “sunn-hemp (Crotalaria juncea” for “wild oat (Avena fatua”, “Click (tradename), Mikado” for “Click”
as §2, with “sunn-hemp” for “wild oat”, “7.” for “4.”

[3] = test system: velvetleaf (Abutilon theophrasti Medic.); experiment: Test Example 16: pot test, soil and foliar treatment, visual growth inhibition; settings: soil treatment and foliar treatment, 29th day after treatment, read-out: Growth inhibition rate (%) of velvetleaf Measured value
Excerpt: Upland field soil was put into a 1/1,000,000 ha pot, and seeds of velvetleaf (Abutilon theophrasti Medic.) were sown. When the velvetleaf reached 4.0 to 4.3-leaf stage, seeds of velvetleaf were further sown in the same pot assuming conditions such that weeds would later grow. Three days later, predetermined amounts of ONEHOPE NYUZAI (tradename), Click (tradename), Callisto (tradename), Mikado (tradename), a wettable powder containing bicyclopyrone as an active ingredient and Clio (tradename) were diluted with water in an amount corresponding to 300 L/ha and applied for soil treatment and for foliar treatment by a small sprayer.
as §2, with “29th” for “28th”, “velvetleaf” for “wild oat”, “16.” for “4.”

[4] = test system: Japanese millet (Echinochloa utilis Ohwi et Yabuno); experiment: Test Example 5: pot test, soil treatment, visual growth inhibition; settings: soil treatment, 28th day after treatment, read-out: Growth inhibition rate (%) of Japanese millet Measured value
Description: Upland field soil was put into a 1/300,000 ha pot, and seeds of Japanese millet (Echinochloa utilis Ohwi et Yabuno) were sown. On the next day, predetermined amounts of ONEHOPE NYUZAI (tradename), Click (tradename) and SC formulation containing topramezone as an active ingredient (tradename: Clio, manufactured by BASF) were diluted with water (in an amount corresponding to 1,000 L/ha) and applied for soil treatment by a small sprayer.
as §2, with “Japanese millet” for “wild oat”, “5.” for “4.”

[5] = test system: Japanese millet (Echinochloa utilis Ohwi et Yabuno); experiment: Test Example 13: pot test, soil and foliar treatment, visual growth inhibition; settings: soil treatment and foliar treatment, 28th day after treatment, read-out: Growth inhibition rate (%) of Japanese millet Measured value
Description: as §1, with “Japanese millet (Echinochloa utilis Ohwi et Yabuno)” for “wild oat (Avena fatua L.)”, “sown. When the Japanese millet reached 3.8 to 4.0-leaf stage, seeds of Japanese millet were further sown in the same pot.” for “sown.”, “treatment and for foliar treatment” for “treatment”
as §2, with “Japanese millet” for “wild oat”, “13.” for “4.”

[6] = test system: korean lespedeza (Kummerowia stipulacea (Maxim.) Makino); experiment: Test Example 6: pot test, soil treatment, visual growth inhibition; settings: soil treatment, 14th day after treatment, read-out: Growth inhibition rate (%) of korean lespedeza Measured value
Description: as §1, with “1/300,000” for “1/1,000,000”, “korean lespedeza (Kummerowia stipulacea (Maxim.) Makino)” for “wild oat (Avena fatua L.)”, “Click (tradename), Mikado” for “Click”
as §2, with “14th” for “28th”, “korean lespedeza” for “wild oat”, “6.” for “4.”

[7] = test system: guinea grass (Panicum maximum Jacq.); experiment: Test Example 17: pot test, soil and foliar treatment, visual growth inhibition; settings: Megathyrsus maximus, 29th day after treatment, read-out: Growth inhibition rate (%) of guinea grass Measured value
Description: Upland field soil was put into a 1/1,000,000 ha pot, and seeds of guinea grass (Panicum maximum Jacq.) were sown. When the guinea grass reached 5.2 to 6.0-leaf stage, seeds of guinea grass were further sown in the same pot assuming conditions such that weeds would later grow. Three days later, predetermined amounts of ONEHOPE NYUZAI (tradename), Click (tradename) and Spectrum (tradename) were diluted with water in an amount corresponding to 300 L/ha and applied for soil treatment and for foliar treatment by a small sprayer.
as §2, with “29th” for “28th”, “guinea grass” for “wild oat”, “17.” for “4.”

Compound	inhibition at 30 g/ha ([1]; 30 g/ha)	inhibition at 100 g/ha ([2]; 100 g/ha)	inhibition at 30 g/ha ([3]; 30 g/ha)	inhibition at 30 g/ha ([4]; 30 g/ha)	inhibition at 15 g/ha ([5]; 15 g/ha)	inhibition at 10 g/ha ([6]; 10 g/ha)	inhibition at 100 g/ha ([6]; 100 g/ha)	inhibition at 30 g/ha ([7]; 30 g/ha)	inhibition at 500 g/ha ([1]; 500 g/ha)	inhibition at 200 g/ha ([2]; 200 g/ha)	inhibition at 500 g/ha ([3]; 500 g/ha)	inhibition at 1000 g/ha ([3]; 1000 g/ha)	inhibition at 500 g/ha ([4]; 500 g/ha)	inhibition at 250 g/ha ([5]; 250 g/ha)	inhibition at 200 g/ha ([6]; 200 g/ha)	inhibition at 2000 g/ha ([6]; 2000 g/ha)	inhibition at 500 g/ha ([7]; 500 g/ha)
COc1cc(OC)nc(NC(=O)NS(=O)(=O)c2ncccc2C(=O)N(C)C)n1 [Nicosulfuron, 2-(4,6-dimethoxypyrimidin-2-ylcarbamoylsulfamoyl)-N,N-dimethylnicotinamide]	30%	40%	0%	40%	55%	0%	0%	38%	–	–	–	–	–	–	–	–	–
CCNc1nc(Cl)nc(NC(C)(C)C)n1 [Terbuthylazine, N^2-tert-butyl-6-chloro-N^4-ethyl-1,3,5-triazine-2,4-diamine]	–	–	–	–	–	–	–	–	15%	30%	15%	18%	50%	0%	10%	25%	0%
